Results published in the supplement of paper PMC10307832.

What was measured:
Test in all cases: relative viability (nuclei count vs DMSO), 5 days (fraction); higher = more cells survive
ChaGo-K-1 = tested on: ChaGo-K-1
How it was run: (§1)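 Relative viability was taken as the ratio of nuclei in treated wells to nuclei in vehicle wells. Lung cancer cell lines in 1536-well plates received compounds by pin tool one day after seeding, either one drug alone or a fixed anchor-drug dose plus five library-drug doses (not always all listed) in √10 steps. Nuclei were counted on 4× images after 5 days of treatment, and values are medians of duplicate plates.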

LCLC-97TM1 = tested on: LCLC-97TM1
How it was run: as §1

NCI-H647 = tested on: NCI-H647
How it was run: as §1

NCI-H661 = tested on: NCI-H661
How it was run: as §1

COR-L 105 = tested on: COR-L 105
How it was run: as §1

PC-14 = tested on: PC-14
How it was run: as §1

NCI-H2087 = tested on: NCI-H2087
How it was run: as §1

NCI-H1915 = tested on: NCI-H1915
How it was run: as §1

LC-2-ad = tested on: LC-2-ad
How it was run: as §1

NCI-H650 = tested on: NCI-H650
How it was run: as §1

NCI-H23 = tested on: NCI-H23
How it was run: as §1

H3255 = tested on: H3255
How it was run: as §1

NCI-H2347 = tested on: NCI-H2347
How it was run: as §1

NCI-H1666 = tested on: NCI-H1666
How it was run: as §1

201T = tested on: 201T
How it was run: as §1

NCI-H2126 = tested on: NCI-H2126
How it was run: as §1

NCI-H520 = tested on: NCI-H520
How it was run: as §1

RERF-LC-KJ = tested on: RERF-LC-KJ
How it was run: as §1

HCC-827 = tested on: HCC-827
How it was run: as §1

HCC-78 = tested on: HCC-78
How it was run: as §1

NCI-H2405 = tested on: NCI-H2405
How it was run: as §1

EPLC-272H = tested on: EPLC-272H
How it was run: as §1

Nc1ccn([C@@H]2O[C@H](CO)[C@@H](O)[C@@H]2O)c(=O)n1 [Cytarabine] + O=C(c1cc(Cc2n[nH]c(=O)c3ccccc23)ccc1F)N1CCN(C(=O)C2CC2)CC1 [Olaparib] (partner 8 µM)
relative viability (ChaGo-K-1; first compound 0.005 µM): 0.414 | relative viability (ChaGo-K-1; first compound 0.01581 µM): 0.417 | relative viability (ChaGo-K-1; first compound 0.05 µM): 0.32 | relative viability (ChaGo-K-1; first compound 0.1581 µM): 0.238 | relative viability (ChaGo-K-1; first compound 0.5 µM): 0.209 | relative viability (LCLC-97TM1; first compound 0.005 µM): 0.34 | relative viability (LCLC-97TM1; first compound 0.01581 µM): 0.333 | relative viability (LCLC-97TM1; first compound 0.05 µM): 0.183 | relative viability (LCLC-97TM1; first compound 0.1581 µM): 0.126 | relative viability (LCLC-97TM1; first compound 0.5 µM): 0.106 | relative viability (NCI-H647; first compound 0.005 µM): 0.285 | relative viability (NCI-H647; first compound 0.01581 µM): 0.22 | relative viability (NCI-H647; first compound 0.05 µM): 0.174 | relative viability (NCI-H647; first compound 0.1581 µM): 0.0623 | relative viability (NCI-H647; first compound 0.5 µM): 0.0624 | relative viability (NCI-H661; first compound 0.005 µM): 0.677 | relative viability (NCI-H661; first compound 0.01581 µM): 0.773 | relative viability (NCI-H661; first compound 0.05 µM): 0.646 | relative viability (NCI-H661; first compound 0.1581 µM): 0.518 | relative viability (NCI-H661; first compound 0.5 µM): 0.398 | relative viability (COR-L 105; first compound 0.005 µM): 0.841 | relative viability (COR-L 105; first compound 0.01581 µM): 0.791 | relative viability (COR-L 105; first compound 0.05 µM): 0.417 | relative viability (COR-L 105; first compound 0.1581 µM): 0.469 | relative viability (COR-L 105; first compound 0.5 µM): 0.358 | relative viability (PC-14; first compound 0.005 µM): 0.227 | relative viability (PC-14; first compound 0.01581 µM): 0.252 | relative viability (PC-14; first compound 0.05 µM): 0.241 | relative viability (PC-14; first compound 0.1581 µM): 0.105 | relative viability (PC-14; first compound 0.5 µM): 0.0848 | relative viability (NCI-H2087; first compound 0.005 µM): 0.413 | relative viability (NCI-H2087; first compound 0.01581 µM): 0.618 | relative viability (NCI-H2087; first compound 0.05 µM): 0.578 | relative viability (NCI-H2087; first compound 0.1581 µM): 0.348 | relative viability (NCI-H2087; first compound 0.5 µM): 0.19 | relative viability (NCI-H1915; first compound 0.005 µM): 0.288 | relative viability (NCI-H1915; first compound 0.01581 µM): 0.253 | relative viability (NCI-H1915; first compound 0.05 µM): 0.261 | relative viability (NCI-H1915; first compound 0.1581 µM): 0.24 | relative viability (NCI-H1915; first compound 0.5 µM): 0.212 | relative viability (LC-2-ad; first compound 0.005 µM): 0.697 | relative viability (LC-2-ad; first compound 0.01581 µM): 0.617 | relative viability (LC-2-ad; first compound 0.05 µM): 0.65 | relative viability (LC-2-ad; first compound 0.1581 µM): 0.58 | relative viability (LC-2-ad; first compound 0.5 µM): 0.474 | relative viability (NCI-H650; first compound 0.005 µM): 0.363 | relative viability (NCI-H650; first compound 0.01581 µM): 0.277 | relative viability (NCI-H650; first compound 0.05 µM): 0.169 | relative viability (NCI-H650; first compound 0.1581 µM): 0.14 | relative viability (NCI-H650; first compound 0.5 µM): 0.156 | relative viability (NCI-H23; first compound 0.005 µM): 0.387 | relative viability (NCI-H23; first compound 0.01581 µM): 0.244 | relative viability (NCI-H23; first compound 0.05 µM): 0.227 | relative viability (NCI-H23; first compound 0.1581 µM): 0.121 | relative viability (NCI-H23; first compound 0.5 µM): 0.148 | relative viability (H3255; first compound 0.005 µM): 0.569 | relative viability (H3255; first compound 0.01581 µM): 0.552 | relative viability (H3255; first compound 0.05 µM): 0.495 | relative viability (H3255; first compound 0.1581 µM): 0.526 | relative viability (H3255; first compound 0.5 µM): 0.446 | relative viability (NCI-H2347; first compound 0.005 µM): 0.59 | relative viability (NCI-H2347; first compound 0.01581 µM): 0.569 | relative viability (NCI-H2347; first compound 0.05 µM): 0.522 | relative viability (NCI-H2347; first compound 0.1581 µM): 0.538 | relative viability (NCI-H2347; first compound 0.5 µM): 0.493 | relative viability (NCI-H1666; first compound 0.005 µM): 0.675 | relative viability (NCI-H1666; first compound 0.01581 µM): 0.754 | relative viability (NCI-H1666; first compound 0.05 µM): 0.694 | relative viability (NCI-H1666; first compound 0.1581 µM): 0.613 | relative viability (NCI-H1666; first compound 0.5 µM): 0.684 | relative viability (201T; first compound 0.005 µM): 0.832 | relative viability (201T; first compound 0.01581 µM): 0.877 | relative viability (201T; first compound 0.05 µM): 0.914 | relative viability (201T; first compound 0.1581 µM): 0.847 | relative viability (201T; first compound 0.5 µM): 0.827 | relative viability (NCI-H2126; first compound 0.005 µM): 0.923 | relative viability (NCI-H2126; first compound 0.01581 µM): 0.907 | relative viability (NCI-H2126; first compound 0.05 µM): 0.673 | relative viability (NCI-H2126; first compound 0.1581 µM): 0.534 | relative viability (NCI-H2126; first compound 0.5 µM): 0.515 | relative viability (NCI-H520; first compound 0.005 µM): 0.276 | relative viability (NCI-H520; first compound 0.01581 µM): 0.272 | relative viability (NCI-H520; first compound 0.05 µM): 0.337 | relative viability (NCI-H520; first compound 0.1581 µM): 0.263 | relative viability (NCI-H520; first compound 0.5 µM): 0.239 | relative viability (RERF-LC-KJ; first compound 0.005 µM): 0.886 | relative viability (RERF-LC-KJ; first compound 0.01581 µM): 0.806 | relative viability (RERF-LC-KJ; first compound 0.05 µM): 0.655 | relative viability (RERF-LC-KJ; first compound 0.1581 µM): 0.459 | relative viability (RERF-LC-KJ; first compound 0.5 µM): 0.277 | relative viability (HCC-827; first compound 0.005 µM): 0.459 | relative viability (HCC-827; first compound 0.01581 µM): 0.367 | relative viability (HCC-827; first compound 0.05 µM): 0.0662 | relative viability (HCC-827; first compound 0.1581 µM): 0.159 | relative viability (HCC-827; first compound 0.5 µM): 0.189 | relative viability (HCC-78; first compound 0.005 µM): 0.906 | relative viability (HCC-78; first compound 0.01581 µM): 0.849 | relative viability (HCC-78; first compound 0.05 µM): 0.583 | relative viability (HCC-78; first compound 0.1581 µM): 0.419 | relative viability (HCC-78; first compound 0.5 µM): 0.278 | relative viability (NCI-H2405; first compound 0.005 µM): 0.737 | relative viability (NCI-H2405; first compound 0.01581 µM): 0.605 | relative viability (NCI-H2405; first compound 0.05 µM): 0.509 | relative viability (NCI-H2405; first compound 0.1581 µM): 0.396 | relative viability (NCI-H2405; first compound 0.5 µM): 0.336 | relative viability (EPLC-272H; first compound 0.005 µM): 0.476 | relative viability (EPLC-272H; first compound 0.01581 µM): 0.57 | relative viability (EPLC-272H; first compound 0.05 µM): 0.607 | relative viability (EPLC-272H; first compound 0.1581 µM): 0.244 | relative viability (EPLC-272H; first compound 0.5 µM): 0.123
